{"source": "patent US20100267765A1", "about": "“Pharmaceutical Compositions and Methods for CCR5 Antagonists” (priority 2007, published 2010)", "type_in_all_cases": "in vivo, human", "key": {"[1]": {"test_system": "HIV-1 (CXCR4 using viral population)", "assay": "Example 1: HIV-1 RNA viral load reduction after 24 weeks", "conditions": "for Treatment difference in VL (95% confidence interval) / Mean VL reduction: 24 weeks", "text": "The baseline HIV-1 RNA count was taken prior to the first dose (Day 1) and at multiple time points during the 24-week study period."}, "[2]": {"test_system": "total cholesterol/HDL ratio", "assay": "MERIT study: total cholesterol/HDL ratio", "conditions": "with Combivir; ARV-naive R5 HIV-1 patients; P=0.005 between groups", "text": "(§1) The MERIT study design included a fasting metabolic assessment at baseline and at Weeks 24 and 48 or at early study discontinuation, to evaluate the fasted lipid values in the MERIT study and their potential effect on cardiovascular risk.\n(§2) For a 50% smoking rate scenario (which approximates to the smoking rate seen in the DAD Study-Friis-Møller N, et al. N Engl J Med 2003; 349:1993-2003), smoking status (yes/no) was randomly imputed to the study population 500 times, by sampling from a binomial distribution with a probability of success of 0.5. Smoking status was assumed to remain constant for the duration of the study."}, "LDL cholesterol [3]": {"test_system": "LDL cholesterol", "assay": "Example 1: fasting LDL cholesterol after 24 weeks, OBT plus maraviroc vs OBT plus placebo", "procedure": "(§3) The eligible patients were randomised into three groups based on the drug regimens they received.\n(§4) Prior to the first dose (Day 1), a fasting assessment was made, in which the following was measured and taken as the baseline measurement: total cholesterol, HDL, LDL, triglycerides, glucose and glycosolated haemoglobin.\n(§5) After 24 weeks of treatment or early termination, the same lipid parameters (in particular HDL levels) were measured again."}, "HDL cholesterol": {"test_system": "HDL cholesterol", "assay": "Example 1: fasting HDL cholesterol after 24 weeks, OBT plus maraviroc vs OBT plus placebo", "conditions": "for Numbers of individuals with maximum % increase in HDL cholesterol in range 10 to >30 (sum, within sensitivity range of assay) / Numbers of individuals with maximum % increase in HDL cholesterol relative to baseline 0-5% / Numbers of individuals with maximum % increase in HDL cholesterol relative to baseline 5-<10% / Numbers of individuals with maximum % increase in HDL cholesterol relative to baseline 10-<20% / Numbers of individuals with maximum % increase in HDL cholesterol relative to baseline 20-<30% / Numbers of individuals with maximum % increase in HDL cholesterol relative to baseline <0% / Numbers of individuals with maximum % increase in HDL cholesterol relative to baseline ≧30% / Mean % Change in HDL / Mean % difference from Group1 (placebo) (95% Confidence Interval) in HDL: 24 weeks", "procedure": "as §3, §4\nHDL as part of a lipid profile was measured by Covance laboratories (Indianapolis, Ind.).\nas §5"}, "fasting lipid parameters": {"test_system": "fasting lipid parameters", "assay": "MERIT study: fasting lipoprotein profile (total cholesterol, HDL, LDL, triglycerides)", "conditions": "for HDL cholesterol levels on treatment: 48 weeks", "text": "as §1, §2"}, "[4]": {"assay": "MERIT study: 10-year coronary heart disease risk by Framingham equation", "conditions": "for Absolute CHD 10-year risk (mean [SD]): Framingham equation, simulated smoking rate 50%, with Combivir", "text": "as §2"}, "LDL cholesterol [5]": {"test_system": "LDL cholesterol", "assay": "MERIT study: on-treatment fasting LDL cholesterol vs NCEP cutpoints", "conditions": "with Combivir", "text": "as §1, §2"}, "[6]": {"conditions": "Group 2: OBT plus maraviroc 150 or 300 mg po QD, N = 63"}, "[7]": {"conditions": "Group 3: OBT plus maraviroc 150 or 300 mg po BID, N = 61"}, "[8]": {"conditions": "Group 2: OBT plus maraviroc QD, n = 45"}, "[9]": {"conditions": "Group 3: OBT plus maraviroc BID, n = 48"}, "[10]": {"conditions": "patients already above threshold at baseline excluded, P<0.0001"}}}
{"compound": "(N-{(1S)-3-[3-isopropyl-5-methyl-4H-1,2,4-triazole-4-yl]-exo-8-azabicyclo[3.2.1]oct-8-yl}-1-phenylpropyl)-4,4-difluorocyclohexanecarboxamide) [maraviroc]", "values": [{"measurement": "Treatment difference in VL (95% confidence interval)", "setting": "[1]; Group 2: OBT plus maraviroc QD vs Group 1 (placebo)", "result": "+0.06 log10 copies/mL"}, {"measurement": "Mean VL reduction", "setting": "[1]; Group 2: OBT plus maraviroc QD", "result": "−0.91", "unit": "log10 copies/mL"}, {"measurement": "Treatment difference in VL (95% confidence interval)", "setting": "[1]; Group 3: OBT plus maraviroc BID vs Group 1 (placebo)", "result": "−0.23", "unit": "log10 copies/mL"}, {"measurement": "Mean VL reduction", "setting": "[1]; Group 3: OBT plus maraviroc BID", "result": "−1.20", "unit": "log10 copies/mL"}, {"measurement": "Reduction in viral load (VL) in HIV patients with CXCR4 using viral population", "setting": "[1]; after 24 weeks, vs Group 1", "result": "no statistically significant reduction"}, {"measurement": "Median decrease in the total cholesterol/HDL ratio", "setting": "[2]", "result": "−0.54"}, {"measurement": "Numbers of individuals with maximum % increase in LDL cholesterol in range 10 to >30 (sum, within sensitivity range of assay)", "setting": "LDL cholesterol [3]; [6]", "result": 20}, {"measurement": "Numbers of individuals with maximum % increase in LDL cholesterol relative to baseline 0-5%", "setting": "LDL cholesterol [3]; [6]", "result": 2}, {"measurement": "Numbers of individuals with maximum % increase in LDL cholesterol relative to baseline 5-<10%", "setting": "LDL cholesterol [3]; [6]", "result": 5}, {"measurement": "Numbers of individuals with maximum % increase in LDL cholesterol relative to baseline 10-<20%", "setting": "LDL cholesterol [3]; [6]", "result": 9}, {"measurement": "Numbers of individuals with maximum % increase in LDL cholesterol relative to baseline 20-<30%", "setting": "LDL cholesterol [3]; [6]", "result": 4}, {"measurement": "Numbers of individuals with maximum % increase in LDL cholesterol relative to baseline <0%", "setting": "LDL cholesterol [3]; [6]", "result": 11}, {"measurement": "Numbers of individuals with maximum % increase in LDL cholesterol relative to baseline ≧30%", "setting": "LDL cholesterol [3]; [6]", "result": 7}, {"measurement": "Numbers of individuals with maximum % increase in LDL cholesterol in range 10 to >30 (sum, within sensitivity range of assay)", "setting": "LDL cholesterol [3]; [7]", "result": 18}, {"measurement": "Numbers of individuals with maximum % increase in LDL cholesterol relative to baseline 0-5%", "setting": "LDL cholesterol [3]; [7]", "result": 4}, {"measurement": "Numbers of individuals with maximum % increase in LDL cholesterol relative to baseline 5-<10%", "setting": "LDL cholesterol [3]; [7]", "result": 1}, {"measurement": "Numbers of individuals with maximum % increase in LDL cholesterol relative to baseline 10-<20%", "setting": "LDL cholesterol [3]; [7]", "result": 5}, {"measurement": "Numbers of individuals with maximum % increase in LDL cholesterol relative to baseline 20-<30%", "setting": "LDL cholesterol [3]; [7]", "result": 3}, {"measurement": "Numbers of individuals with maximum % increase in LDL cholesterol relative to baseline <0%", "setting": "LDL cholesterol [3]; [7]", "result": 18}, {"measurement": "Numbers of individuals with maximum % increase in LDL cholesterol relative to baseline ≧30%", "setting": "LDL cholesterol [3]; [7]", "result": 10}, {"measurement": "LDL levels after treatment compared with placebo (Group 1)", "setting": "LDL cholesterol [3]; Table 1a", "result": "no increase over placebo"}, {"measurement": "Increase in HDL-C levels following treatment", "setting": "HDL cholesterol; 300 mg BID maraviroc, Tables 2a, 3a", "result": "clear dose-related increase"}, {"measurement": "Numbers of individuals with maximum % increase in HDL cholesterol in range 10 to >30 (sum, within sensitivity range of assay)", "setting": "HDL cholesterol; [6]", "result": 18}, {"measurement": "Numbers of individuals with maximum % increase in HDL cholesterol relative to baseline 0-5%", "setting": "HDL cholesterol; [6]", "result": 6}, {"measurement": "Numbers of individuals with maximum % increase in HDL cholesterol relative to baseline 5-<10%", "setting": "HDL cholesterol; [6]", "result": 4}, {"measurement": "Numbers of individuals with maximum % increase in HDL cholesterol relative to baseline 10-<20%", "setting": "HDL cholesterol; [6]", "result": 7}, {"measurement": "Numbers of individuals with maximum % increase in HDL cholesterol relative to baseline 20-<30%", "setting": "HDL cholesterol; [6]", "result": 2}, {"measurement": "Numbers of individuals with maximum % increase in HDL cholesterol relative to baseline <0%", "setting": "HDL cholesterol; [6]", "result": 17}, {"measurement": "Numbers of individuals with maximum % increase in HDL cholesterol relative to baseline ≧30%", "setting": "HDL cholesterol; [6]", "result": 9}, {"measurement": "Mean % Change in HDL", "setting": "HDL cholesterol; [8]", "result": 13.1, "unit": "%"}, {"measurement": "Mean % difference from Group1 (placebo) (95% Confidence Interval) in HDL", "setting": "HDL cholesterol; [8]", "result": "10.8 (−3.4, 25.0) %"}, {"measurement": "Numbers of individuals with maximum % increase in HDL cholesterol in range 10 to >30 (sum, within sensitivity range of assay)", "setting": "HDL cholesterol; [7]", "result": 28}, {"measurement": "Numbers of individuals with maximum % increase in HDL cholesterol relative to baseline 0-5%", "setting": "HDL cholesterol; [7]", "result": 5}, {"measurement": "Numbers of individuals with maximum % increase in HDL cholesterol relative to baseline 5-<10%", "setting": "HDL cholesterol; [7]", "result": 1}, {"measurement": "Numbers of individuals with maximum % increase in HDL cholesterol relative to baseline 10-<20%", "setting": "HDL cholesterol; [7]", "result": 9}, {"measurement": "Numbers of individuals with maximum % increase in HDL cholesterol relative to baseline 20-<30%", "setting": "HDL cholesterol; [7]", "result": 8}, {"measurement": "Numbers of individuals with maximum % increase in HDL cholesterol relative to baseline <0%", "setting": "HDL cholesterol; [7]", "result": 14}, {"measurement": "Numbers of individuals with maximum % increase in HDL cholesterol relative to baseline ≧30%", "setting": "HDL cholesterol; [7]", "result": 11}, {"measurement": "Mean % Change in HDL", "setting": "HDL cholesterol; [9]", "result": 17.4, "unit": "%"}, {"measurement": "Mean % difference from Group1 (placebo) (95% Confidence Interval) in HDL", "setting": "HDL cholesterol; [9]", "result": "15.1 (1.1, 29.1) %"}, {"measurement": "HDL cholesterol levels on treatment", "setting": "fasting lipid parameters; with Combivir", "result": "improved"}]}
{"compound": "O=C1Nc2ccc(Cl)cc2[C@@](C#CC2CC2)(C(F)(F)F)O1", "note": "[efavirenz]", "values": [{"measurement": "Absolute CHD 10-year risk (mean [SD])", "setting": "[4]; Week 24", "result": 3.0, "unit": "%"}, {"measurement": "Absolute CHD 10-year risk (mean [SD])", "setting": "[4]; Week 48", "result": 3.3, "unit": "%"}, {"measurement": "Relative risk of having a CHD event within 10 years", "setting": "[4]; efavirenz group vs maraviroc group at Week 24 and Week 48, smoking rate 50%, FIG. 5b", "result": "consistently higher"}, {"measurement": "Median decrease in the total cholesterol/HDL ratio", "setting": "[2]", "result": "−0.43"}, {"measurement": "Number of patients who initiated LDL-lowering therapy during the study", "setting": "LDL cholesterol [5]", "result": "six"}, {"measurement": "Relation of change in LDL cholesterol to baseline LDL cholesterol", "setting": "LDL cholesterol [5]; FIG. 2b", "result": "directly related"}, {"measurement": "Patients with high on-treatment LDL cholesterol level (≧160 mg/dL) at both Week 24 and Week 48 (%)", "setting": "LDL cholesterol [5]; P=0.007", "result": 2.9, "unit": "%"}, {"measurement": "Patients with high on-treatment LDL cholesterol level (≧160 mg/dL) at both Week 24 and Week 48 (n/N)", "setting": "LDL cholesterol [5]; P=0.007", "result": "10/343"}, {"measurement": "Patients who developed LDL cholesterol levels during the study that were ≧160 mg/dL (%)", "setting": "LDL cholesterol [5]; [10]", "result": 9, "unit": "%"}, {"measurement": "Patients who developed LDL cholesterol levels during the study that were ≧160 mg/dL (n/N)", "setting": "LDL cholesterol [5]; [10]", "result": "31/343"}, {"measurement": "Percentage of patients with increases in total cholesterol and LDL cholesterol levels at some point after baseline to ≧130 mg/dL", "setting": "fasting lipid parameters; efavirenz compared with maraviroc, P<0.0001, FIG. 3b", "result": "greater percentage"}, {"measurement": "Median maximum changes from baseline in total cholesterol, HDL cholesterol, LDL cholesterol and triglyceride levels", "setting": "fasting lipid parameters; efavirenz group compared with maraviroc group, with Combivir, FIG. 1b", "result": "significantly greater"}, {"measurement": "HDL cholesterol levels on treatment", "setting": "fasting lipid parameters; with Combivir", "result": "improved"}]}
